Experimental data from patent US20240342184A1, “USE OF ENHANCER 3C1 IN PREPARATION OF ENHANCER FOR INTERACTION BETWEEN FXR AND CASPASE 8” (CHINA PHARMACEUTICAL UNIVERSITY, priority 2021, published 2024).

Assays:
[1] = test system: C57BL/6 mice; assay: CCl4-induced liver injury of mice; assay type: in vivo, mouse; conditions: CCl4-injected C57BL/6 mice, 3C1 at 5 or 10 mg/kg/day i.p.
Procedure: Before the experiment, C57BL/6 mice were acclimated for one week under the conditions of, room temperature at 22-26° C. and relative humidity of 40-60%, with light alternated with darkness for 12 h. Each mouse was housed in a separate cage with free access to water and food, and their body weights were maintained at 20-22 g. Experimental groups included a blank control group, a model group, a low-dose 3C1 administration group (5 mg/kg), and a high-dose 3C1 administration group (10 mg/kg).
The C57BL/6 mice in the low-dose 3C1 administration group and the high-dose 3C1 administration group were pre-administered with intraperitoneal injections of 3C1 at a dose of 5 mg/kg/day or 10 mg/kg/day, and the mice in other groups were subject to vehicle control. 3 days later, liver injury was induced by intraperitoneal injections of CCl4, and the control group was administered with mineral oil. The mice were euthanized 48 h later. Blood and livers of the mice were collected.
After standing at room temperature for 0.5 h, whole blood was centrifuged at 8000 rpm for 10 min, and a supernatant was transferred to a new electropolished (EP) tube to obtain serum. Alanine transaminase (ALT) and aspartate transaminase (AST) were detected according to instructions of ALT and AST assay kits.
1) 20 mg of a liver tissue sample from each mouse was weighed, 1.0 ml of RNAiso Plus was added, the samples were homogenized, and a homogenate was transferred to a centrifuge tubes, kept standing at room temperature for 5 min, and centrifuged at 4° C. and 12000 g for 5 min.
2) 800 μl of a supernatant was transferred, 160 μl of chloroform was added, and a mixture obtained was vigorously shaken for 15 sec, and then centrifuged at 12000 g for 15 min after standing at room temperature for 5 min. A sample included three layers: a bottom layer as a yellow organic phase, an upper layer as a colorless aqueous phase, and an intermediate layer.
3) 300 μl of the upper aqueous phase was carefully transferred to a new tube, 300 μl of isopropanol was added, after inverting and mixing, a mixture obtained stood at room temperature for 10 min, and after centrifugation at 12000 g for 10 min, the supernatant was discarded.
An RNA precipitate was washed with 1.0 ml of pre-chilled 75% ethanol and then centrifuged at 12000 g for 5 min, and a supernatant was discarded to obtain total RNA, which was reconstituted with 20 μl of DEPC water and diluted to […] after quantification.
According to a system ratio indicated in the specification, the RNA solution and kit components were prepared into a system with a total volume of 20 μl, and a programmed temperature was set for reverse transcription. Specific ratio requirements were as follows:
The PCR system is as follows:
Wuhan Servicebio Co., Ltd. was entrusted to complete H&E staining and Sirius Red staining.

[2] = test system: human hepatocyte cell line L02; assay: MTT cell viability assay in induced hepatocyte apoptosis models; assay type: cell-based; conditions: 3C1 at 1, 10, 100 μM, L02 cells
Procedure: A human hepatocyte cell line L02 was cultured in complete medium DMEM containing 10% fetal bovine serum (FBS), and placed in a culture incubator containing 5% CO2 at 37° C., and cells in a logarithmic growth phase were inoculated in a 96-well plate at a density of 5×10^3 cells/well. The cells were transfected at 50 nM after 24 h. Hepatocyte apoptosis was induced 48 h later after the transfection. […]
In addition to an apoptosis reagent, the compound 3C1 of different concentrations (1 μM, 10 μM, and 100 μM) was administered.
After the time of administration, 20 μl of MTT (5 mg/ml) was added to each well, the cells were further incubated at 37° C. for 4 h, a culture medium was aspirated and discarded, 150 μl of dimethyl sulfoxide (DMSO) was added to each well, incubation was performed at 37° C. for 10 min, and the absorbance was measured at 490 nm.

[3] = molecular target: T1, interaction between FXR protein and Caspase 8 protein (Homo sapiens, UniProt Q14790+Q96RI1); assay: Co-IP/Western blot of the FXR-Caspase 8 interaction in apoptotic L02 hepatocytes; assay type: cell-based; conditions: L02 cells, ActD/TNFα-induced apoptosis, 3C1 at 1, 10, 100 μM for 2 h, FIG. 3
T1 construct: endogenous in cells; host or cells: L02 human hepatocyte cell line
Procedure: A human hepatocyte cell line L02 was cultured in a complete DMEM containing 10% FBS, and placed in a culture incubator containing 5% CO2 for culturing at 37° C., and cells in a logarithmic growth phase were inoculated in a 12-well plate at a density of 2×10^5 cells/well. After 24 h, an apoptosis model was constructed by means of human tumor necrosis factor-related apoptosis-inducing ligand (TRAIL), Actinomycin D (ActD)/tumor necrosis factor alpha (TNFα), and cycloheximide (CHX)/Fas ligand (FasL) methods respectively. Cells were treated with TRAIL at 50 ng/ml for 0, 2, 4, 8, 12, and 24 h, respectively. […] Cells were incubated with ActD/TNFα for 0, 1, 2, 4, 8, and 12 h, respectively. […] Cells were incubated with […] for 0, 2, 4, and 8 h, respectively.
1) Cells were washed twice with pre-chilled phosphate-buffered saline (PBS), an appropriate amount of pre-chilled PBS was added for the last time, a pre-chilled cell scraper was used to scrape the cells from a culture dish or a culture flask, and a suspension was transferred to a 1.5 ml electropolished (EP) tube. […] A protein concentration was determined through a bicinchoninic acid (BCA) assay. […]

[4] = molecular target: T1, interaction between FXR protein and Caspase 8 protein; assay: Co-IP/Western blot of the FXR-Caspase 8 interaction in healthy L02 hepatocytes; assay type: cell-based; conditions: 3C1 at 1, 10, 100 μM for 2 h, FIG. 2
Procedure: 1) Cells were washed twice with pre-chilled phosphate-buffered saline (PBS), an appropriate amount of pre-chilled PBS was added for the last time, a pre-chilled cell scraper was used to scrape the cells from a culture dish or a culture flask, and a suspension was transferred to a 1.5 ml electropolished (EP) tube. After centrifugation at 4° C. and 4000 rpm for 5 min, a supernatant was discarded, an appropriate amount of an NP40 lysis buffer was added, a mixture obtained was shaken evenly, and the cells were ultrasonicated for a total of 3 times (5 s per time) until the cells were completely lysed. After centrifugation at 4° C. and 14000 g for 10 min, a supernatant was transferred to a new EP tube, to obtain a protein lysis buffer. A protein concentration was determined through a bicinchoninic acid (BCA) assay.
2) 25 μl of Protein A Beads was taken and blocked with 5% bovine serum albumin (BSA) for 1 h at room temperature, and then washed with the PBS for 3 times, and a supernatant was discarded after centrifugation at 14000 g for 1 min each time. The protein lysis buffer with a uniform concentration was added to the Beads, rocking-turn was performed at 4° C. for 1 h, and a sample was pre-cleared. After centrifugation at 14000 g for 1 min, a supernatant was transferred to a new EP tube. […]

T1 sequence (Q96RI1 whole entry): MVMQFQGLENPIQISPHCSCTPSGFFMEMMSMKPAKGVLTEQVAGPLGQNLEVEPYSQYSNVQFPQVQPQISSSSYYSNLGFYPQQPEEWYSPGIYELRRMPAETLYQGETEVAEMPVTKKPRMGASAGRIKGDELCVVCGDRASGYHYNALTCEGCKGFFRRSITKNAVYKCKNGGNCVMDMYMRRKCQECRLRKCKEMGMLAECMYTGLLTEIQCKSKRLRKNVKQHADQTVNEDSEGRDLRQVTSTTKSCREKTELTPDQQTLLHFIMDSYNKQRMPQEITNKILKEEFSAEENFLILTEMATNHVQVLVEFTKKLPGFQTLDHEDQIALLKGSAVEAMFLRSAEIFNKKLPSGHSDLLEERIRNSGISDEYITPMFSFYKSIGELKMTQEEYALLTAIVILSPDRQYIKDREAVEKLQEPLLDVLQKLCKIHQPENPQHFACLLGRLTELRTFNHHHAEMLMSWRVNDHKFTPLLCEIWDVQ
T1 sequence (Q14790 217-479): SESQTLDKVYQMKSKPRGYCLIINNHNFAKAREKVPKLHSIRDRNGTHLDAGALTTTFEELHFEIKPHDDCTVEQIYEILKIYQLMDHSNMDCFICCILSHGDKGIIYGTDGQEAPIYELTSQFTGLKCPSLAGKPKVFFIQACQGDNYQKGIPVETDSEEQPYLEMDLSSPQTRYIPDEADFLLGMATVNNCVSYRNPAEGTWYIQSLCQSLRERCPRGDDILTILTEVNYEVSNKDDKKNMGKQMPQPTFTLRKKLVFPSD

## Cc1n[nH]c(=S)nc1Nc1ccc(F)c(Cl)c1 [Compound 3C1]
[1]; FIG. 5A
  serum ALT level: significantly reduced the elevated levels
[1]; FIG. 5B
  serum AST level: significantly reduced the elevated levels
[1]; FIG. 5C
  liver pathology, H&E staining: significant remission in the disorders of liver lobule structures, decreased infiltration of inflammatory cell, and less collagen fibers in the portal area
[1]; FIG. 5D
  liver pathology, Sirius Red staining (red collagen fibers): hyperplasia of red collagen fibers in the livers was significantly alleviated
[1]; RT-PCR, P<0.001, FIG. 5E
  liver Timp1 mRNA level: significantly reduced their mRNA levels (P<0.001) in a dose-dependent manner
[1]; RT-PCR, P<0.001, FIG. 5F
  liver Timp2 mRNA level: significantly reduced their mRNA levels (P<0.001) in a dose-dependent manner
[2]; ActD 30 min then TNFα 20 ng/ml for 8 h
  anti-apoptotic effect (cell viability, MTT): significant anti-apoptotic effects
[2]; CHX 50 μM 30 min then FasL 50 ng/ml for 8 h
  anti-apoptotic effect (cell viability, MTT): significant anti-apoptotic effects
[2]; TRAIL 50 ng/ml for 24 h
  anti-apoptotic effect (cell viability, MTT): significant anti-apoptotic effects
[3]
  interaction between FXR protein and Caspase 8 protein in apoptotic hepatocytes: could reverse this reduction
[4]
  interaction between FXR protein and Caspase 8 protein in healthy cells: obviously enhanced the interaction between FXR protein and Caspase 8 protein in healthy cells in a dose-dependent manner
